For series [1], the system named is transient K+ currents composed of Kv4.2 subunits. Briefly: Transient K+ currents recorded in distal dendrites of hippocampal area CA1 slices. In kind it is cell-based. Here is the method:
MEK inhibitor PD098059 ([…]) or vehicle was applied to the hippocampal CA1 slices at least 20 minutes before recording conductance.
The functional consequence of MAPK inhibition on transient K^+currents composed of Kv4.2 subunits as recorded in distal dendrites of hippocampal area CA1 was evaluated. The MEK inhibitor PD098059 ([…]) or vehicle was applied to the hippocampal CA1 slices at least 20 min prior to recording conductance.

The subject of series [2] is Kv4.2. Description: Phospho-Kv4.2 Western blotting of hippocampal membrane fractions from kainate and control animals. It counts as in vivo, rat. How it is done: Western blotting using the phospho-Kv4.2 antibody to the ERK sites was performed on membrane fractions from kainate and control animals pretreated with SL327 as described in Example 1. See also Adams et al., J. Neurochem. 75:2277-2287 (2000), and Anderson et al., J. Biol. Chem. 275:5337-5346 (2000). Animals were sacrificed 30 minutes after kainate (before overt seizures) and 1 hour after continuous motor seizures.

A further series deals with CREB. Description: Phospho-CREB Western blots of hippocampus. It counts as in vivo, rat. Here is the method: Western blots prepared using CA1, CA3 and dentate regions of the hippocampus from rats following kainate-induced status epilepticus (KA, n=3) or vehicle alone (CTL, n=3) were performed using phospho-CREB antibodies. […] There is a small but significant decrease in CREB phosphorylation in CA3 (CA3 80.4±9.0%; *p<0.05, ***p<0.001).
Hippocampal region CA1 was removed 2 hours after rats were treated IP with the MEK inhibitor, SL327 (100 mg/kg) or vehicle alone. Western blots were developed using the phosho-CREB antibody.

For another series, the system named is ERK MAPK (p42 and p44). Description: Hippocampal ERK activation by Western blotting (phospho-ERK and total ERK). It counts as in vivo, rat. As to conditions: for ERK activation (phospho-ERK): kainate+vehicle (PEG400/ETOH); for basal ERK phosphorylation: CTL+SL327 400 mg/kg; for kainate-induced ERK phosphorylation: KA+SL327 400 mg/kg; for basal ERK activation (phospho-ERK): control+SL327 100 mg/kg; for kainate-induced ERK activation (phospho-ERK): kainate+SL327 100 mg/kg. Here is the method: Hippocampal ERK activation was quantified by Western blotting using the method described by Atkins el al.[Atkins et al., Nat. Neurosci. 1:602-609 (1998)] with minor modifications. In brief, animals were sacrificed at 30 minutes and after 1 hr of class 5 seizures (150 min post injection) and the hippocampus was dissected. CA1, CA3 and dentate subregions were dissected in ice-cold saline and homogenates prepared by extracting with denaturing detergent. Protein concentrations were deteremined by Bradford Assay. Homogenates were subjected to Western blotting (immunoblots) prepared by routine methods (for example, see Harlow and Lane, in ANTIBODIES: A LABORATORY MANUAL, Cold Spring Harbor Laboratory Press (1988)). Blotted protein was detected using antibodies to total ERK (1:10,000) and dually phosphorylated, activated ERK MAPK (p42 and p44)(1:1000)(Cell Signaling). Enzyme activity associated with a secondary antibody was detected by incubation with Enhanced Chemiluminescent Reagent (BioRad Laboratories, Hercules Calif.) as substrate. Immunoreactivity of the total ERK and dually phosphorylated activated ERK MAPK in the blot was quantified using densitometry (Scion) for representative blots of p42 and analyzed by Student's t-test.
(§1) Adult rats were injected IP with SL327 100 mg/kg or vehicle alone (PEG400/ETOH) were administered 30 minutes later with kainate or vehicle (saline). Animals were sacrificed at following 1 hour of kainate-induced seizures or three hours after kainate injection. Hippocampal regions CA1, CA3, and dentate were removed and processed for Western blotting, as described in Example 1.
ERK phosphorylation in brain tissue was evaluated in kainate challenged animals pretreated with 400 mg/kg SL327. […] CA1, CA3, and dentate were dissected and processed for Western blotting as described in Example 1. […] Tukey's Multiple Comparison Test: ***p<0.001.

For another series, the system named is phospho-Kv4.2. Briefly: Phospho-Kv4.2 immunohistochemistry of hippocampus. In kind it is in vivo, rat. As to conditions: after kainate-induced seizures; stratum oriens and radiatum of CA1 and CA3, dentate hilus. Here is the method: [insert*: see symbol after “antibody”] Immunohistochemistry using phospho-Kv4.2 antibody (phospho-Kv4.2) to the ERK sites was performed as described in Example 1 for the same animal groups. […] These areas include stratum oriens and stratum radiatum of areas CA1 and CA3 and the dentate hilus.

The subject of series [3] is kainate-induced limbic motor seizures. Briefly: Kainate-induced seizures scored by Racine Classification Scale. In kind it is in vivo, rat. How it is done: Male Sprague-Dawley rats (125-200 gm) were administered kainate at a dose of 15 mg/kg IP while the control animals (CTL) received vehicle IP (saline). Seizures were scored independently by two investigators in accordance with the Racine Classification Scale (0=no seizures, 1=mouth/face movements; 2=head nodding; 3=forelimb clonus; 4=rearing; and 5=rearing and falling). [Ben-Ari et al., Devl. Brain. Res. 14:284-288 (1985)]. Seizure score is shown plotted against time in the kainate-treated and control (vehicle-injected) animals.
as §1
Animals were treated as described in Example 2 except that SL327 was administered at 400 mg/kg.

A further series has as its system phospho-ERK. Briefly: Phospho-ERK immunohistochemistry of hippocampus. It counts as in vivo, rat. As to conditions: 150 min after kainate; stratum oriens of CA1, stratum radiatum of CA1 and CA3, dentate hilus, mossy fiber inputs to CA3. How it is done:
Immunohistochemical analysis of stained neural tissue was performed as described by Varga et al., Learn Mem 7;321-322 (2000), with the following modifications. In this case, kainate and control animals were sacrificed at 150 minutes following injection, while in stage 5 seizures for about 1 hour. After tissue fixation, 20-micron sections were thaw-mounted and incubated in 0.3% H2O2 in methanol for 30 minutes at RT, washed in PBST (PBS containing 0.2% Triton X-100), and blocked in PBST containing 5% normal goat serum (NGS). Sections were then incubated with the phospho-ERK antibody (1:100) overnight, washed with PBST, and incubated with a 1:200 dilution of goat anti-rabbit biotinylated secondary antibody for 30 minutes at RT. After washing and incubation with a 1:50 dilution of ABC reagent (Pierce) for 30 minutes at RT, sections were again washed in PBST and then stained using metal enhanced DAB. Sections were then rinsed, cleared, and coverslipped using a xylene based medium.

A short description of series [4]: Behavioral observation of animals treated with SL327. It counts as in vivo, rat.
Series [5] has as its system Kv4.2. As to conditions: U0126 20 μM, rat hippocampal slices, CA1. Here is the method: Rat hippocampal slices were bathed in vehicle with MEK inhibitor U0126 (20 μM) or vehicle alone (CTL).
The mark [6] stands for this setting: vehicle-treated kainate group (no SL327).
The mark [7] stands for this setting: SL327 100 mg/kg IP 30 min before kainate.

Each structure is given as a SMILES string. Entries after “also recorded” stand apart in the source; their conditions may differ.

Regarding `COc1cccc(-c2cc(=O)c3ccccc3o2)c1N` [PD098059, 2-(2′-amino-3′-methoxyphenyl)-oxanaphthalen-4-one], the “effect on conductance / voltage-dependence of K+ currents in dendrites” value in series [1] (MEK inhibitor applied to hippocampal CA1 slices at least 20 min before recording) is listed as “hyperpolarizing shift; also recorded: Conductance with inhibitor was increased compared to controls at almost all voltages applied”. Moreover, in [1] (as printed: after compound, PD098059 50 μM applied at least 20 min before recording, n=10), the “V½ of steady-state activation, after compound” value is −2 mV. For the same compound, the “V½ of steady-state activation, before compound” value in series [1] (as printed: before compound, n=7) is recorded as −9 mV.
With `C=C(C)[C@H]1CN[C@H](C(=O)O)[C@H]1CC(=O)O` [kainate], the “ERK phosphorylation of Kv4.2” value in the series on Kv4.2 [2] (CA1, 30 min after kainate injection) came out at 48.80±6.95 % control; in the series with Kv4.2 [2] (CA3, 30 min after kainate injection) it was 128.70±29.12 % control; with Kv4.2 [2] (dentate, 30 min after kainate injection), 109.10±11.09 % control. The phospho-Kv4.2 is 535.5±84.1 % of CTL+Vehicle with Kv4.2 [2] (KA+Vehicle, CA1, after 1 hr limbic motor seizures); 442.0±57.0 % of CTL+Vehicle with Kv4.2 [2] (KA+Vehicle, CA3, after 1 hr limbic motor seizures); 1177.0±361.1 % of CTL+Vehicle in the series with Kv4.2 [2] (KA+Vehicle, dentate, after 1 hr limbic motor seizures). Also, the CREB phosphorylation in the series with CREB (CA1, kainate-induced status epilepticus) is given as 162.9±29.4 % of control; in the series with CREB (CA3, kainate-induced status epilepticus), 80.4±9.0%; in the series on CREB (dentate, kainate-induced status epilepticus) it was 138.0±4.4 % of control. Moreover, the phospho-ERK2 immunoreactivity was 218.9 (±40.66) % CTL in the series on ERK MAPK (p42 and p44) (CA1, 30 min after kainate 15 mg/kg IP, prior to behavioral seizures); 165.5±16.5 % of control with ERK MAPK (p42 and p44) (CA1, 150 min after kainate, class 5 seizures); 206.80 (±31.61) % CTL with ERK MAPK (p42 and p44) (CA3, 30 min after kainate 15 mg/kg IP); 153.1±10.3 % of control with ERK MAPK (p42 and p44) (CA3, 150 min after kainate, class 5 seizures); 305.50 (±58.26) % CTL in the series with ERK MAPK (p42 and p44) (dentate, 30 min after kainate 15 mg/kg IP); 224.8±34.1 % of control in the series with ERK MAPK (p42 and p44) (dentate, 150 min after kainate, class 5 seizures). In addition, the “total MAPK immunoreactivity” value in the series with ERK MAPK (p42 and p44) (kainate versus control, total MAPK antibody) was “No difference”. Further, the “ERK activation (phospho-ERK)” value is listed as 215.40 (±24.19) % control with ERK MAPK (p42 and p44) (CA1); 196.60 (±6.69) % control with ERK MAPK (p42 and p44) (CA3); 219.60 (±8.82) % control with ERK MAPK (p42 and p44) (dentate). In addition, the phospho-Kv4.2 staining result in the series on phospho-Kv4.2 is on record as “increase in phospho-Kv4.2”. Further, the “seizure class (Racine Classification Scale)” value in [3] (kainate 15 mg/kg IP, male Sprague-Dawley rats, within 90 min, persisted until 150 min) is given as “all of the animals studied developed class 5 seizures”. Moreover, the “animals progressed to Class 3 seizures” value in series [3] (setting [6]) is listed as 1/9. Moreover, the “animals progressed to Class 5 seizures” value in series [3] (setting [6]) is recorded as 6/9. The “animals that developed limbic motor seizures” value in [3] (setting [6]) turned out to be 78%. Further, in series [3] (setting [6]), the “animals with no evidence of motor seizures” value is reported as 2/9. The phospho-ERK staining result with phospho-ERK was “increased greatly”.
Consider `N#CC(=C(N)Sc1ccc(N)cc1)c1ccccc1C(F)(F)F` [SL327, Z- and E-α-[amino[(4-aminophenyl)thio]methylene]-2-(trifluoromethyl)benzeneacetonitrile], for which, in [4] (SL327 400 mg/kg, all groups), the sedation result is on record as “modest degree of apparent sedation”. The locomotor activity result in [4] (SL327 400 mg/kg, some animals in kainate and control groups) is recorded as “increase in locomotor activity”. The “lethargy or other behavioral changes” value in series [4] (control animals, SL327 100 mg/kg) was “No obvious lethargy or other behavioral changes”. For the same compound, in the series on Kv4.2 [2] (KA+SL327 400 mg/kg, CA1), the phospho-Kv4.2 was 152.8±41.4 % of CTL+SL327. Moreover, the phospho-Kv4.2 in the series on Kv4.2 [2] (KA+SL327 400 mg/kg, CA3) was 170.8±16.6 % of CTL+SL327. In addition, in the series on Kv4.2 [2] (KA+SL327 400 mg/kg, dentate), the phospho-Kv4.2 is listed as 66.6±10.36 % of CTL+SL327. Also, the “activated CREB (phospho-CREB)” value in the series on CREB (CA1, 2 hours after SL327 100 mg/kg IP) is on record as “reduces the amount of activated CREB”. Besides, in the series with ERK MAPK (p42 and p44) (CA1), the “basal ERK phosphorylation” value was 8.4±7.2 % of CTL+Vehicle, the “kainate-induced ERK phosphorylation” value is 31.5±10.5 % of CTL+Vehicle, the “basal ERK activation (phospho-ERK)” value is 46.05 (±15.89) % control and the “kainate-induced ERK activation (phospho-ERK)” value (from here on “kainate-induced ERK activation”) was 220.70 (±35.80) % control. Besides, in the series with ERK MAPK (p42 and p44) (CA3), the “basal ERK phosphorylation” value was 2.9±0.5 % of CTL+Vehicle, the “kainate-induced ERK phosphorylation” value is on record as 26.2±10.8 % of CTL+Vehicle, the “basal ERK activation (phospho-ERK)” value is recorded as 37.51 (±9.59) % control and the “kainate-induced ERK activation” value was 143.60 (±22.26) % control. Moreover, in the series with ERK MAPK (p42 and p44) (dentate), the “basal ERK phosphorylation” value is given as 3.1±0.8 % of CTL+Vehicle, the “kainate-induced ERK phosphorylation” value is on record as 24.7±9.9 % of CTL+Vehicle, the “basal ERK activation (phospho-ERK)” value is 32.16 (±11.46) % control and the “kainate-induced ERK activation” value is reported as 195.6 (±18.58) % control. The “total ERK1/ERK2 MAPK protein” value in the series with ERK MAPK (p42 and p44) (SL327 400 mg/kg pretreatment, total ERK antibody) is given as “no changes in total protein”. Besides, in series [1] (n=2, Control 85.55%), the “unspecified quantity, % of control” value is given as 61.83 % of control. Also, in [3] (setting [7]), the “animals with class 5 seizures” value is listed as 100% and the “block of kainate-induced seizures” value is on record as “did not block kainate-induced seizures”. The “block of kainate-induced limbic motor seizures” value in [3] (SL327 400 mg/kg IP 30 min before kainate 15 mg/kg) is reported as “blocks limbic motor status epilepticus; also recorded: effectively blocked kainate-induced limbic motor seizures”.
With `N#CC(=C(/N)Sc1ccccc1N)/C(C#N)=C(\N)Sc1ccccc1N` [U0126], the “detection by MAPK-Kv4.2 phospho-selective antibody (basal Kv4.2 phosphorylation)” value in the series on Kv4.2 [5] is listed as 61.14%±8.74 % of control.

These data come from patent publication US20020058699A1, “Methods for treating seizure disorders by inhibiting MAPK pathway activation” (priority 2000, published 2002).
